Laboratory results reported in ChEMBL document CHEMBL1201862, “PubChem BioAssay data set” (2004).
Activity calls are given as the source filed them.

Assays:
[1] = molecular target: Luciferin 4-monooxygenase (Photinus pyralis, UniProt P08659); test: firefly luciferase enzyme inhibitors, dose response, biochemical, luminescence (AID 1891)
[2] = Luminescence Cell-Based Dose Confirmation HTS to Identify Inhibitors of Platelet Dense Granule Release. [Related pubchem assays: 1663 (Primary HTS), 1678 (Summary of Project)]; assay type: functional
[3] = off-target signal loss in HeLa-CEM21 co-culture – HeLa F-luc CTL cells, cherry-picked, counter-screen for HIV-1 Env fusion inhibitor project, dose response (AID 652040); assay type: functional, cell-based;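 note: potency for signal decrease marking cytotoxic or nonspecific inhibition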
[4] = inhibitors of clade B AD8 Env fusion, dose response, cell-based, cherry-pick (AID 652062); assay type: functional;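 note: luciferase signal from cell-cell fusion driven by HIV-1 clade B AD8 Env; potency is for inhibitors of fusion seen as a drop in luminescence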
[5] = ZM109 Env clade C HIV-1 fusion inhibitors, dose response, HeLa effector, CEM target cells, luciferase, cherry-pick (AID 652058); assay type: functional, cell-based
[6] = inhibitors of HIV Env-driven cell fusion, dose response, cherry-pick (AID 652057); assay type: functional, cell-based
[7] = molecular target: Cytochrome P450 2D6 (Homo sapiens, UniProt P10635);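 note: CYP2D6 member of a cytochrome P450 panel assay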
[8] = molecular target: T1, Scavenger receptor class B member 1 (Mus musculus, UniProt Q61009); test: inhibitors of SR-BI-mediated HDL uptake, dose response, cell-based, ldlA[mSR-BI] CHO, DiI fluorescence, dry powder, set 10 (AID 624029); assay type: functional
T1 sequence (Q61009 whole entry): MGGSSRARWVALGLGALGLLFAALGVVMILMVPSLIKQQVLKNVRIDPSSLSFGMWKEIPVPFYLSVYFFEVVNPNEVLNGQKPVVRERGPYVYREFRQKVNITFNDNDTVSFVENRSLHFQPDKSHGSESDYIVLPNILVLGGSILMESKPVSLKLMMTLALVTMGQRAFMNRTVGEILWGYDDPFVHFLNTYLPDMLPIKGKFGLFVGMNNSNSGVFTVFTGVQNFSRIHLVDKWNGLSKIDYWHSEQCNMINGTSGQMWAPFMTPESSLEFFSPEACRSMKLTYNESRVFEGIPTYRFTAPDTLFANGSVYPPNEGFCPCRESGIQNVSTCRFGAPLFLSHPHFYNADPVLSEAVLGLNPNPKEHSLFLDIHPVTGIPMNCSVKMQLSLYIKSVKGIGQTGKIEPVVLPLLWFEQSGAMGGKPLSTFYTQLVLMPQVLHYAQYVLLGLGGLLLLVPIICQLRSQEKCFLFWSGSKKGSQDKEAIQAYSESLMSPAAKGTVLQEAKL

[9] = tested on: Vero; test: Vero cell toxicity, dose response, cytotoxicity control, plate reader, cherry-pick samples (AID 687020); assay type: functional, cell-based; conditions: Chlorocebus sabaeus
[10] = tested on: HEK293; test: cells; conditions: Homo sapiens
[11] = tested on: HEK293; test: cells; conditions: Homo sapiens; remark: listed apart in the source
[12] = molecular target: Beta-lactamase (Pseudomonas aeruginosa, UniProt Q79MP6);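 note: biochemical dose-response test of metallo-beta-lactamase enzyme inhibition, read out by epi-absorbance; purified recombinant IMP-1 metallo-beta-lactamase with nitrocefin as substrate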
[13] = molecular target: Troponin, cardiac muscle (Homo sapiens, UniProt P19429+P45379+P63316); test: Fluorescence-based biochemical high throughput dose response assay for activators of the calcium sensitivity of cardiac Regulated Thin Filaments (RTF). [Related pubchem assays (depositor defined):AID493008, AID493018, AID504382, AID504383]; assay type: protein-complex assay
[14] = molecular target: Beta-lactamase (Salmonella choleraesuis (strain SC-B67), UniProt Q5J463)
[15] = molecular target: DNA repair protein RAD52 homolog (Homo sapiens, UniProt P43351); assay type: functional, biochemical
[16] = molecular target: T2, DNA repair and recombination protein RAD54-like (Homo sapiens, UniProt Q92698); test: inhibitors of human RAD54 branch migration, confirmation, biochemical, fluorescence, cherry-picked samples, dose series (AID 651657); assay type: functional
T2 sequence (Q92698 whole entry): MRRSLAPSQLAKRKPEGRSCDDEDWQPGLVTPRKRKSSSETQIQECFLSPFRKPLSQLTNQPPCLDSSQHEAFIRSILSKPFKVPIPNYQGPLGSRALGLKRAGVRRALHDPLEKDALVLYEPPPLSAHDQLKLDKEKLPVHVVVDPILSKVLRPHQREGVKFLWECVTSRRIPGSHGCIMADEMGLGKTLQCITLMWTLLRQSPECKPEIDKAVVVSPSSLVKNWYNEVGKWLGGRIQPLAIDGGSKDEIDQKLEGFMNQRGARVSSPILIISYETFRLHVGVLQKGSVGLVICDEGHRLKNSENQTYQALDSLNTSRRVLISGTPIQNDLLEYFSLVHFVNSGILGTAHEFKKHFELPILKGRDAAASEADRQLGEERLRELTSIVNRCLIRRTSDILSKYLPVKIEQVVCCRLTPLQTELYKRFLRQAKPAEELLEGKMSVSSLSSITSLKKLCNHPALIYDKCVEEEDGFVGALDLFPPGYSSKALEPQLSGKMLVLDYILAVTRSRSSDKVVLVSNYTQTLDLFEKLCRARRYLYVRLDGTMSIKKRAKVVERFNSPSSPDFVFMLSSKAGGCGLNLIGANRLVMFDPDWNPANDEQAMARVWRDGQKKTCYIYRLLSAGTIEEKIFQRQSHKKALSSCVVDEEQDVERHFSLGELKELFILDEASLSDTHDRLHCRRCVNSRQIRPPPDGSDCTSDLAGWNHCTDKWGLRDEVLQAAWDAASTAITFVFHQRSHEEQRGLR

[17] = cytotoxicity toward NIH3T3 fibroblasts, dose response, counter-screen, cell-based, ATP luminescence, mouse fibroblasts (AID 2010); assay type: functional;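 note: cells exposed to compound for about 90 hours before reading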
[18] = inhibitors of intracellular T. cruzi replication, confirmation, NIH3T3 host cells, beta-gal luminescence (AID 2044); assay type: functional, cell-based;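 note: intracellular parasites grown in NIH/3T3 mouse fibroblasts as host cells; luminescent beta-galactosidase reporter signal from transgenic T. cruzi replicating inside host cells; inhibitors lower the luminescence signal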
[19] = cells; assay type: functional, cell-based
[20] = molecular target: Photoreceptor-specific nuclear receptor (Homo sapiens, UniProt Q9Y5X4); assay type: functional, cell-based;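 note: CHO-S cells with Gal4-NCOR and VP16-NR2E3 two-hybrid luciferase reporter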
[21] = C. albicans growth with fluconazole, confirmation, fluorescence, retest (AID 2467); assay type: functional, cell-based
[22] = NIH-3T3 fibroblast cytotoxicity, dose response, cytotoxicity control, cell-based, fluorescence, Alamar Blue, secondary assay (AID 2327); assay type: functional;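 note: NIH-3T3 mouse fibroblasts cultured with fluconazole at 8 µg/mL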
[23] = molecular target: ATP-dependent molecular chaperone HSP82 (Candida albicans (strain WO-1) (Yeast), UniProt C4YTQ8); test: loss of DOC-induced GRE-beta-galactosidase reporter signal, dose response, Hsp90 inhibitor project, S. cerevisiae, luminescence (AID 2400); assay type: functional, cell-based;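 note: beta-galactosidase luminescence from glucocorticoid response element reporter as proxy for Hsp90 function; inhibitor potency where signal loss means Hsp90 inhibition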
[24] = cells; assay type: functional, cell-based; remark: listed apart in the source
[25] = molecular target: T3, Serine/threonine-protein phosphatase (Candida dubliniensis (strain CD36 / CBS 7987 / NCPF 3949 / NRRLY-17841) (Yeast), UniProt B9W6M3); test: calcineurin pathway inhibitors in yeast reporter, dose response, S. cerevisiae, CDRE-lacZ, luminescence, secondary (AID 2388); assay type: functional, cell-based;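 note: yeast reporter cells carrying a calcineurin-responsive lacZ construct stimulated with calcium chloride; luminescent beta-galactosidase reporter signal in whole cells rather than isolated phosphatase activity; potency for inhibition where a drop in reporter signal means calcineurin blockade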
T3 sequence (B9W6M3 whole entry): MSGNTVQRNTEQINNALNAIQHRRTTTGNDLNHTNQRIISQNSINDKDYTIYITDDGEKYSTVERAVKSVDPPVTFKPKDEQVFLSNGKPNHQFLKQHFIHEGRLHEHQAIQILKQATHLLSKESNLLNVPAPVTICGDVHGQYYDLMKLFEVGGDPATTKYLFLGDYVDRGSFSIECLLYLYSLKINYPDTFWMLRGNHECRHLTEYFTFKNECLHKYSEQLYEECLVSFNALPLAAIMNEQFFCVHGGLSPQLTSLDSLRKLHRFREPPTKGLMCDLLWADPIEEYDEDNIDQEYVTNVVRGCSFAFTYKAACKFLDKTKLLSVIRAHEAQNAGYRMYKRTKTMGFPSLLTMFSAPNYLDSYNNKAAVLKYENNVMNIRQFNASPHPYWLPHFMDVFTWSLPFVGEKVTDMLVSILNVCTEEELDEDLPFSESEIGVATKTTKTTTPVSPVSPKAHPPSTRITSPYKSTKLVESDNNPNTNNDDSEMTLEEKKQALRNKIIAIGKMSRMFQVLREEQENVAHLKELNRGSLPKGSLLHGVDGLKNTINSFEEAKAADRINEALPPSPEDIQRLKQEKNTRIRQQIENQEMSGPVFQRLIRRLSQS

[26] = tested on: INS1; test: beta cell apoptosis inhibitors, cytokine rescue, dose response, luminescence, retest (AID 449756); assay type: functional, cell-based; conditions: Rattus norvegicus;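 note: cell death triggered by IL-1 beta plus TNF-alpha plus IFN-gamma mixture; protective hits raise ATP signal compared with cytokine alone wells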

Chain of Cytochrome P450 2D6 (P10635 whole entry): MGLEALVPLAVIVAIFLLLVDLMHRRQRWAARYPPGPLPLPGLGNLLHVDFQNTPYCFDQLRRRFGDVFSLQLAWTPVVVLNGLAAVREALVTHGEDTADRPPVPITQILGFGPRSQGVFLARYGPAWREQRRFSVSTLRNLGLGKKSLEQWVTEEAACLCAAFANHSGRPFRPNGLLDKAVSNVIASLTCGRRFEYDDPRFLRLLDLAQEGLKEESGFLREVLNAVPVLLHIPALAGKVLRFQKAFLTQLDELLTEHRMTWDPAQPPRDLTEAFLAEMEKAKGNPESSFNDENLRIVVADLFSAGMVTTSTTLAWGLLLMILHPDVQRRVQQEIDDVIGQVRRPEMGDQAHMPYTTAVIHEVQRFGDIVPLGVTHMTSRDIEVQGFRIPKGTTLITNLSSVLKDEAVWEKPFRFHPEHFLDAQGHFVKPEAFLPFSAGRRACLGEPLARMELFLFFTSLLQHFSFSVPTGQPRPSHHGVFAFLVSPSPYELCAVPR
Chain of Luciferin 4-monooxygenase (P08659 whole entry): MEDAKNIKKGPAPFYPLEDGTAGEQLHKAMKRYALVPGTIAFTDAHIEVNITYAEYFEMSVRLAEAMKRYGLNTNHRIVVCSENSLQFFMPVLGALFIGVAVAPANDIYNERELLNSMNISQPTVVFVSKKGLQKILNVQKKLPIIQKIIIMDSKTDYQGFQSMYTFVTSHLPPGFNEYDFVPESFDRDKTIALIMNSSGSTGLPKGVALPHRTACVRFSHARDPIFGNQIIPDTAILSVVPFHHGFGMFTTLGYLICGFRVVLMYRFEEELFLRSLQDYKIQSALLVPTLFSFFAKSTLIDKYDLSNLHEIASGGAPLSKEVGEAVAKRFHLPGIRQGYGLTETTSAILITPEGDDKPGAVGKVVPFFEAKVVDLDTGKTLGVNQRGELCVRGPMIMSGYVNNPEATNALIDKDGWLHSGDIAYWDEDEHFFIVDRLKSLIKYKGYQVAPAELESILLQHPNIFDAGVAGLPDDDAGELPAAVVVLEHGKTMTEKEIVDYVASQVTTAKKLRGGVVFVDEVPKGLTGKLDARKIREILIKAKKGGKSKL
Chain of ATP-dependent molecular chaperone HSP82 (C4YTQ8 whole entry): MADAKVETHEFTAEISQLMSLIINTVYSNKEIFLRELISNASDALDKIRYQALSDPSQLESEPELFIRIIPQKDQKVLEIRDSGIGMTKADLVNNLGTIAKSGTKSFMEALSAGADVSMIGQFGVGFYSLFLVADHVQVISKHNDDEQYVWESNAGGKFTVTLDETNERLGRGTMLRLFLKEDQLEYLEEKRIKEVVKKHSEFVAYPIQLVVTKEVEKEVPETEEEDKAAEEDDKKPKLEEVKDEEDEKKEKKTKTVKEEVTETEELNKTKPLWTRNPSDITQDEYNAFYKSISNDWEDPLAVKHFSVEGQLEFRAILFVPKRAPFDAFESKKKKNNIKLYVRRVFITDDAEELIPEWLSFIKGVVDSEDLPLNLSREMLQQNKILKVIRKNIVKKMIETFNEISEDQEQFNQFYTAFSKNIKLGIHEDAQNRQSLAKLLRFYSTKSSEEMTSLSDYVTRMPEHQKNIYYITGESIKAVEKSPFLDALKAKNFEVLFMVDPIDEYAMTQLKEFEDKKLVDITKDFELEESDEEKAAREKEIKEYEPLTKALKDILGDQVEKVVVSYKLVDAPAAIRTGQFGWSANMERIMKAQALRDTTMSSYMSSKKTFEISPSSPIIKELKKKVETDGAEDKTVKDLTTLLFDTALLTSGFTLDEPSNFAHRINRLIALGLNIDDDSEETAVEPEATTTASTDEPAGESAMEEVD
Chain of Beta-lactamase (Pseudomonas aeruginosa, UniProt Q79MP6) (Q79MP6 whole entry): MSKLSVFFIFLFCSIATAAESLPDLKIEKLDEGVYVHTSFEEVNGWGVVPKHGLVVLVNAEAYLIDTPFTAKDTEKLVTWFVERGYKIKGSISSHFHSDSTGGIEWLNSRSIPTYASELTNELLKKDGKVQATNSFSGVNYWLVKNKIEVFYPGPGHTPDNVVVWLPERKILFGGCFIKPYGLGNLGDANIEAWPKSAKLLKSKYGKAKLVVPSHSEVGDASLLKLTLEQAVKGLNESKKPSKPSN
Chain of DNA repair protein RAD52 homolog (P43351 whole entry): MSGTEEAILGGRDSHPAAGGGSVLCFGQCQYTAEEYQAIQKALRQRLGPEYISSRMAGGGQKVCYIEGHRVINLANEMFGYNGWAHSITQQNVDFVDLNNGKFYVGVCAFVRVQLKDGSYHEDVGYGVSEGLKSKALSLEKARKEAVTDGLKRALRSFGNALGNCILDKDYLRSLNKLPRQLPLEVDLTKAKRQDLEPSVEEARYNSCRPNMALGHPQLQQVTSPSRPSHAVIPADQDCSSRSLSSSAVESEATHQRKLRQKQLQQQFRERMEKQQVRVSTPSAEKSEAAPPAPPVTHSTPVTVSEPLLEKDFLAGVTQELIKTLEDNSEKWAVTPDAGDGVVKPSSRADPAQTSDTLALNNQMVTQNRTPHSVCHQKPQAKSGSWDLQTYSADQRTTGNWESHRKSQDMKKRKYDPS
Chain of Photoreceptor-specific nuclear receptor (Q9Y5X4 whole entry, the tested form may be a part): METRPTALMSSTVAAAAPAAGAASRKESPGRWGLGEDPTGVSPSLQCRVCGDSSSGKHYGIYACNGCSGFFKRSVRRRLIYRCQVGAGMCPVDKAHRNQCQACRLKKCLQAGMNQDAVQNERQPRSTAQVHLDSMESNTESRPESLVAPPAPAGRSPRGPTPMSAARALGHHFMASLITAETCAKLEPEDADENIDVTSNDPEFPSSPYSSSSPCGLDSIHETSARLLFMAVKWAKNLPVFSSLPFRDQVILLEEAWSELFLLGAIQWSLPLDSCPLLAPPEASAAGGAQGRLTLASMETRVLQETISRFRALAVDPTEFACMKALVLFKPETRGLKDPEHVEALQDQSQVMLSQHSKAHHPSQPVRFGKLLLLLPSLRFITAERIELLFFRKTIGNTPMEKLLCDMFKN
Chain of Beta-lactamase (Salmonella choleraesuis (strain SC-B67), UniProt Q5J463) (Q5J463 whole entry): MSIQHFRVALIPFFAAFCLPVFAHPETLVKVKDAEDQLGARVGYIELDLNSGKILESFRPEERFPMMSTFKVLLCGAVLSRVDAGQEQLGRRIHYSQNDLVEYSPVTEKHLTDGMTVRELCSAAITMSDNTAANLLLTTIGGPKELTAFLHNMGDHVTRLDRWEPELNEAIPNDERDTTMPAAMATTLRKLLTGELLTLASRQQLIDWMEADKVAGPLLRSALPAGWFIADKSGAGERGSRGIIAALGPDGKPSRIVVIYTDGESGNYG

In the case of `Cc1ccc(N2C(=O)CC(c3ccsc3)C3=C2CC(C)(C)CC3=O)cc1` (stereo unspecified), the EC50 [1] is reported as > 112 µM (not active), the EC50 [2] is reported as > 112 µM (not active) and the AC50 [3] is reported as 5.07 µM (active). The AC50 [4] was 18.9 µM (active), the AC50 [5] was 3.55 µM (active) and the AC50 [6] was 3.24 µM (active). For the same compound, the AC50 [7] was 39.8 µM (inconclusive).
For `CC(C)NC(=O)Nc1ccc2c(c1)C(=O)N([C@H](C)CO)C[C@H](C)[C@H](CN(C)S(=O)(=O)c1ccc(Cl)cc1)O2`, the AC50 [8] was 57.4 µM (active).
In the case of `CC(C)C[C@@H](COc1ccccc1)N1CCN(Cc2ccccc2)CCC1=O`, the AC50 [9] is reported as 33.5 µM (active).
With `COc1ccc(NC(=O)C2CCCN2S(=O)(=O)c2ccc3c(c2)CCC(=O)N3)cc1Cl` (stereo unspecified) the AC50 [3] was 14.8 µM (active), the AC50 [4] was 17.3 µM (active) and the EC50 [10] was > 59.6 µM (inactive). For the same compound, the AC50 [5] was 3.18 µM (active), the EC50 [11] was > 59.6 µM (inactive) and the AC50 [6] was 7.43 µM (active).
In the case of `COc1ccc(/C=C2/SC(c3ccc(C)cc3)=NC2=O)cc1OC`, the IC50 [12] is reported as > 59.6 µM (inactive), the EC50 [13] is reported as 0.742 µM (active) and the IC50 [14] is reported as > 59.6 µM (inactive).
In the case of `CN(C)CCCNc1nc2cc(-c3ccc(F)cc3)sc2c(=O)n1C`, the AC50 [15] is reported as 7.84 µM (active) and the AC50 [16] is reported as 33.8 µM (active).
For `COc1ccc2ccccc2c1-c1sc(Nc2ccccc2)n[n+]1-c1ccc(F)cc1`, the EC50 [17] was > 30 µM (not active), the EC50 [18] was 0.707 µM (active) and the AC50 [9] was 31.6 µM (active).
For `CC(=O)NC(c1cccs1)c1cc([N+](=O)[O-])c2cccnc2c1O` (stereo unspecified), the EC50 [19] was > 350 µM (not active), the IC50 [20] was 4.71 µM (active) and the EC50 [21] was 0.757 µM (active). The EC50 [22] was 46.7 µM (inconclusive), the EC50 [23] was > 150 µM (inactive) and the EC50 [24] was 51.5 µM (active). The EC50 [25] was > 180 µM (inactive) and the AC50 [26] was 4.94 µM (active).
